This note sets out measurements from US20210221848A1, “POLYMYXIN DERIVATIVES AND THEIR USE IN COMBINATION THERAPY TOGETHER WITH DIFFERENT ANTIBIOTICS” (priority 2014, published 2021).

Assay [1] deals with P. aeruginosa strains with elevated MICs to Polymyxin B. The experiment in a line: MIC against strains with elevated MICs to Polymyxin B. Type of assay: cell-based, Pseudomonas aeruginosa. The following applies: Table 6D; for MIC P. aeruginosa 065: strain 065, elevated MIC to Polymyxin B; for MIC P. aeruginosa 066: strain 066, elevated MIC to Polymyxin B; for MIC P. aeruginosa 067: strain 067, elevated MIC to Polymyxin B. An outline of the steps: (§1)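 Reported MIC is the lower of duplicates agreeing within 2-fold, or the mode where compounds were tested repeatedly. Assays with greater than 2-fold duplicate variation were rejected. Colonies grown 18-24 hours on Mueller-Hinton agar were suspended to 0.5 McFarland as inoculum.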

The subject of assay [2] is E. coli strains with elevated MICs to Polymyxin B. The assay is described as above. It is filed as cell-based, Escherichia coli. The following applies: Table 6D; for MIC E. coli 058: strain 058, elevated MIC to Polymyxin B; for MIC E. coli 059: strain 059, elevated MIC to Polymyxin B; for MIC E. coli 060: strain 060, elevated MIC to Polymyxin B; for MIC E. coli 061: strain 061, elevated MIC to Polymyxin B. An outline of the steps: as §1

The subject of assay [3] is K. pneumoniae strains with elevated MICs to Polymyxin B. In words: MIC against strains with elevated MICs to Polymyxin B. Type of assay: cell-based, Klebsiella pneumoniae. As to conditions: Table 6D; for MIC K. pneumoniae 062: strain 062, elevated MIC to Polymyxin B; for MIC K. pneumoniae 063: strain 063, elevated MIC to Polymyxin B; for MIC K. pneumoniae 064: strain 064, elevated MIC to Polymyxin B; for MIC K. pneumoniae 655: strain 655, elevated MIC to Polymyxin B. A digest of the protocol:
as §1

Assay [4] concerns A. baumanii strains with elevated MICs to Polymyxin B. In words: MIC against strains with elevated MICs to Polymyxin B. The following applies: Table 6D; for MIC A. baumannii 053: strain 053, elevated MIC to Polymyxin B; for MIC A. baumannii 056: strain 056, elevated MIC to Polymyxin B; for MIC A. baumannii 068: strain 068, elevated MIC to Polymyxin B; for MIC A. baumannii 070: strain 070, elevated MIC to Polymyxin B. It is filed as cell-based, Acinetobacter baumannii. A digest of the protocol:
as §1

The mark [5] stands for this setting: absence of a second agent, Table 6B.

Like-named read-outs stand apart in the source and are kept apart here.

As to “4-(isobutyl- piperidine)-3- carbonyl L-Thr-L- Dap-polymyxin B heptapeptide [Example D83]”, in assay [1], the “MIC P. aeruginosa 065” value amounted to 2 micrograms/mL, the “MIC P. aeruginosa 066” value was determined as 2 micrograms/mL and the “MIC P. aeruginosa 067” value is 32 micrograms/mL. Further, in assay [2], the “MIC E. coli 058” value stood at 4 micrograms/mL, the “MIC E. coli 059” value turned out to be 8 micrograms/mL, the “MIC E. coli 060” value is reported as 2 micrograms/mL and the “MIC E. coli 061” value was determined as 8 micrograms/mL. In the assay on A. baumannii (sole activity, Table 6C), the “MIC, A. baumannii ATCC BAA-747” value is given as 0.06 micrograms/mL and the “MIC, A. baumannii NCTC 13424” value was determined as 0.125 micrograms/mL. In assay [3], the “MIC K. pneumoniae 062” value is recorded as 32 micrograms/mL, the “MIC K. pneumoniae 063” value amounted to 16 micrograms/mL, the “MIC K. pneumoniae 064” value came to 2 micrograms/mL and the “MIC K. pneumoniae 655” value stood at 16 micrograms/mL. Moreover, in the assay with E. coli (sole activity, Table 6C), the “MIC, E. coli ATCC 25922” value amounted to 0.125 micrograms/mL and the “MIC, E. coli NCTC 13441” value was found to be 0.06 micrograms/mL. Besides, in assay [4], the “MIC A. baumannii 053” value is >64 micrograms/mL, the “MIC A. baumannii 056” value stood at 32 micrograms/mL, the “MIC A. baumannii 068” value amounted to 8 micrograms/mL and the “MIC A. baumannii 070” value is 16 micrograms/mL. Besides, in the assay on P. aeruginosa (sole activity, Table 6C), the “MIC, P. aeruginosa ATCC 27853” value worked out at 0.25 micrograms/mL and the “MIC, P. aeruginosa CCUG 59347” value was 0.5 micrograms/mL. In addition, the “MIC, K. pneumoniae ATCC 4352” value in the assay on K. pneumoniae (sole activity, Table 6C) came to 0.06 micrograms/mL.

In the case of “(trans-5-(isobutyl- piperidine)-3- carbonyl L-Ser- L-Dap-polymyxin B heptapeptide [Example D79]”, in assay [1], the “MIC P. aeruginosa 065” value amounted to 16 micrograms/mL, the “MIC P. aeruginosa 066” value stood at 8 micrograms/mL and the “MIC P. aeruginosa 067” value is recorded as >128 micrograms/mL. In assay [2], the “MIC E. coli 058” value was determined as 8 micrograms/mL, the “MIC E. coli 059” value came to 8 micrograms/mL, the “MIC E. coli 060” value was 4 micrograms/mL and the “MIC E. coli 061” value was found to be 8 micrograms/mL. In addition, in the assay with A. baumannii (sole activity, Table 6C), the “MIC, A. baumannii ATCC BAA-747” value amounted to 0.06 micrograms/mL and the “MIC, A. baumannii NCTC 13424” value turned out to be 0.125 micrograms/mL. For the same substance, in assay [3], the “MIC K. pneumoniae 062” value turned out to be 64 micrograms/mL, the “MIC K. pneumoniae 063” value is >128 micrograms/mL, the “MIC K. pneumoniae 064” value amounted to 8 micrograms/mL and the “MIC K. pneumoniae 655” value stood at 128 micrograms/mL. In the assay with E. coli (sole activity, Table 6C), the “MIC, E. coli ATCC 25922” value is 0.125 micrograms/mL and the “MIC, E. coli NCTC 13441” value is listed as 0.125 micrograms/mL. Moreover, in assay [4], the “MIC A. baumannii 053” value was found to be 128 micrograms/mL, the “MIC A. baumannii 056” value is recorded as 32 micrograms/mL, the “MIC A. baumannii 068” value was 8 micrograms/mL and the “MIC A. baumannii 070” value was 16 micrograms/mL. For the same substance, in the assay on P. aeruginosa (sole activity, Table 6C), the “MIC, P. aeruginosa ATCC 27853” value is given as 0.25 micrograms/mL and the “MIC, P. aeruginosa CCUG 59347” value turned out to be 0.25 micrograms/mL. For the same substance, in the assay on K. pneumoniae (sole activity, Table 6C), the “MIC, K. pneumoniae ATCC 4352” value was 0.06 micrograms/mL and the “MIC, K. pneumoniae ATCC BAA-2146” value amounted to 0.125 micrograms/mL.

In the case of “(trans-5-(isobutyl- piperidine)-3- carbonyl L-Thr-L- Dap-polymyxin E heptapeptide [Example D77]”, in assay [1], the “MIC P. aeruginosa 065” value stood at 4 micrograms/mL, the “MIC P. aeruginosa 066” value was determined as 2 micrograms/mL and the “MIC P. aeruginosa 067” value is listed as 128 micrograms/mL. Also, in assay [2], the “MIC E. coli 058” value was found to be 2 micrograms/mL, the “MIC E. coli 059” value is 4 micrograms/mL, the “MIC E. coli 060” value is reported as 1 micrograms/mL and the “MIC E. coli 061” value came to 4 micrograms/mL. In addition, in the assay with A. baumannii (sole activity, Table 6C), the “MIC, A. baumannii ATCC BAA-747” value stood at 0.06 micrograms/mL and the “MIC, A. baumannii NCTC 13424” value stood at 0.06 micrograms/mL. Also, in assay [3], the “MIC K. pneumoniae 062” value is on record as 32 micrograms/mL, the “MIC K. pneumoniae 063” value was 16 micrograms/mL, the “MIC K. pneumoniae 064” value was 4 micrograms/mL and the “MIC K. pneumoniae 655” value is 16 micrograms/mL. Moreover, in the assay on E. coli (sole activity, Table 6C), the “MIC, E. coli ATCC 25922” value is recorded as 0.06 micrograms/mL and the “MIC, E. coli NCTC 13441” value is reported as 0.06 micrograms/mL. Moreover, in assay [4], the “MIC A. baumannii 053” value is reported as 64 micrograms/mL, the “MIC A. baumannii 068” value worked out at 4 micrograms/mL and the “MIC A. baumannii 070” value was 4 micrograms/mL. In the assay with P. aeruginosa (sole activity, Table 6C), the “MIC, P. aeruginosa ATCC 27853” value came to 0.5 micrograms/mL and the “MIC, P. aeruginosa CCUG 59347” value amounted to 1 micrograms/mL. Besides, in the assay with K. pneumoniae (sole activity, Table 6C), the “MIC, K. pneumoniae ATCC 4352” value came out at 0.125 micrograms/mL and the “MIC, K. pneumoniae ATCC BAA-2146” value was 0.125 micrograms/mL.

As for “(trans-5- octylpiperidine)-3- carbonyl polymyxin B nonapeptide [Example D23]”, in assay [1], the “MIC P. aeruginosa 065” value is 0.5 micrograms/mL, the “MIC P. aeruginosa 066” value was 1 micrograms/mL and the “MIC P. aeruginosa 067” value is reported as 8 micrograms/mL. In addition, in assay [2], the “MIC E. coli 058” value is listed as 0.5 micrograms/mL, the “MIC E. coli 059” value is 0.25 micrograms/mL, the “MIC E. coli 060” value amounted to 1 micrograms/mL and the “MIC E. coli 061” value is 1 micrograms/mL. In addition, in the assay on A. baumannii (setting [5]), the “MIC, A. baumannii ATCC BAA-747” value was 0.25 micrograms/mL and the “MIC, A. baumannii NCTC 13424” value is 0.25 micrograms/mL. In assay [3], the “MIC K. pneumoniae 062” value is given as 4 micrograms/mL, the “MIC K. pneumoniae 063” value is given as 4 micrograms/mL, the “MIC K. pneumoniae 064” value turned out to be 1 micrograms/mL and the “MIC K. pneumoniae 655” value is 4 micrograms/mL. For the same substance, the “MIC, E. coli NCTC 13441” value in the assay on E. coli (setting [5]) turned out to be 1 micrograms/mL. Also, in assay [4], the “MIC A. baumannii 053” value came to 2 micrograms/mL, the “MIC A. baumannii 056” value amounted to 0.5 micrograms/mL, the “MIC A. baumannii 068” value is 1 micrograms/mL and the “MIC A. baumannii 070” value worked out at 1 micrograms/mL. For the same substance, in the assay with P. aeruginosa (setting [5]), the “MIC, P. aeruginosa ATCC 27853” value turned out to be 0.5 micrograms/mL and the “MIC, P. aeruginosa CCUG 59347” value worked out at 0.5 micrograms/mL. Further, in the assay on K. pneumoniae (setting [5]), the “MIC, K. pneumoniae ATCC BAA-2146” value is on record as 1 micrograms/mL.

Regarding “cis-5- (benzylcarbamoyl) piperidine-3- carbonyl Polymyxin B nonapeptide [Example D66]”, in assay [1], the “MIC P. aeruginosa 065” value came to 16 micrograms/mL, the “MIC P. aeruginosa 066” value was found to be 32 micrograms/mL and the “MIC P. aeruginosa 067” value is given as >256 micrograms/mL. In assay [2], the “MIC E. coli 058” value turned out to be 8 micrograms/mL, the “MIC E. coli 059” value is listed as 16 micrograms/mL, the “MIC E. coli 060” value worked out at 8 micrograms/mL and the “MIC E. coli 061” value is recorded as 32 micrograms/mL. For the same substance, in the assay on A. baumannii (sole activity, Table 6C), the “MIC, A. baumannii ATCC BAA-747” value was 0.25 micrograms/mL and the “MIC, A. baumannii NCTC 13424” value worked out at 0.25 micrograms/mL. In assay [3], the “MIC K. pneumoniae 062” value was found to be 128 micrograms/mL, the “MIC K. pneumoniae 063” value was 64 micrograms/mL and the “MIC K. pneumoniae 064” value is 32 micrograms/mL. In the assay on E. coli (sole activity, Table 6C), the “MIC, E. coli ATCC 25922” value is on record as 0.125 micrograms/mL and the “MIC, E. coli NCTC 13441” value was 0.125 micrograms/mL. Moreover, in assay [4], the “MIC A. baumannii 053” value is reported as >256 micrograms/mL, the “MIC A. baumannii 056” value is 128 micrograms/mL and the “MIC A. baumannii 068” value came out at 32 micrograms/mL. For the same substance, in the assay with P. aeruginosa (sole activity, Table 6C), the “MIC, P. aeruginosa ATCC 27853” value is 0.5 micrograms/mL and the “MIC, P. aeruginosa CCUG 59347” value was 0.5 micrograms/mL. In the assay on K. pneumoniae (sole activity, Table 6C), the “MIC, K. pneumoniae ATCC 4352” value is 0.125 micrograms/mL and the “MIC, K. pneumoniae ATCC BAA-2146” value was found to be 0.06 micrograms/mL.
